Measurements: the supplement of paper PMC10307832

Experiments:
Experiment in all cases: relative viability (nuclei count vs DMSO), 5 days (fraction); higher = more cells survive
Sulindac = compound: CC1=C(CC(=O)O)c2cc(F)ccc2/C1=C\c1ccc([S+](C)[O-])cc1 [Sulindac]
In short: (§1)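 A plate was accepted only when its control CV was below 25% and the cells had doubled at least once. Viability is defined from nuclear counts as treated wells divided by vehicle wells, with the median taken across plates. That median covers lung cancer cell lines grown in 1536-well plates, dosed by pinning at five √10-spaced library-drug concentrations, and counted in MetaXpress from 4× Hoechst images after 5 days.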

Staurosporine = compound: CN[C@@H]1C[C@H]2O[C@@](C)([C@@H]1OC)n1c3ccccc3c3c4c(c5c6ccccc6n2c5c31)C(=O)NC4 [Staurosporine]
In short: as §1

5-Fluorouracil = compound: O=c1[nH]cc(F)c(=O)[nH]1 [5-Fluorouracil]
In short: as §1

| Cell Line | relative viability (Sulindac; 0.08 µM) | relative viability (Sulindac; 0.253 µM) | relative viability (Sulindac; 0.8 µM) | relative viability (Sulindac; 2.53 µM) | relative viability (Sulindac; 8 µM) | relative viability (Staurosporine; 0.005 µM) | relative viability (Staurosporine; 0.01581 µM) | relative viability (Staurosporine; 0.05 µM) | relative viability (Staurosporine; 0.1581 µM) | relative viability (Staurosporine; 0.5 µM) | relative viability (5-Fluorouracil; 0.02 µM) | relative viability (5-Fluorouracil; 0.2 µM) | relative viability (5-Fluorouracil; 0.6325 µM) | relative viability (5-Fluorouracil; 2 µM) |
| --- | --- | --- | --- | --- | --- | --- | --- | --- | --- | --- | --- | --- | --- | --- |
| NCI-H647 | 1.32 | 1.15 | 0.791 | 0.898 | 1.11 | 0.546 | 0.317 | 0.295 | 0.0837 | 0.059 | 1 | 1.11 | 0.842 | 0.623 |
| NCI-H650 | 1.1 | 1.04 | 0.91 | 0.849 | 1.27 | 0.63 | 0.321 | 0.236 | 0.229 | 0.252 | 0.904 | 0.648 | 0.411 | 0.381 |
| NCI-H661 | 1.13 | 1.05 | 0.989 | 1 | 0.965 | 1.02 | 0.722 | 0.555 | 0.364 | 0.238 | 0.998 | 1.04 | 0.954 | 0.992 |
| NCI-H727 | 0.963 | 0.923 | 0.741 | 0.9 | 1.01 | 0.736 | 0.554 | 0.381 | 0.345 | 0.22 | 0.925 | 1.19 | 0.846 | 0.774 |
| NCI-H838 | 1.05 | 1.04 | 0.879 | 0.94 | 1.07 | 0.447 | 0.315 | 0.221 | 0.189 | 0.126 | 0.879 | 1.03 | 0.597 | 0.387 |
| NCI-H1299 | 1.13 | 1.09 | 0.908 | 1.05 | 1.08 | 0.815 | 0.491 | 0.284 | 0.207 | 0.137 | 1.1 | 1.05 | 0.955 | 0.703 |
| NCI-H1355 | 1.02 | 1.06 | 0.873 | 0.971 | 1.08 | 0.856 | 0.238 | 0.363 | 0.197 | 0.159 | 0.925 | 0.877 | 0.438 | 0.309 |
| NCI-H1395 | 1.11 | 0.968 | 0.938 | 0.804 | 1.14 | 0.609 | 0.364 | 0.488 | 0.331 | 0.253 | 0.899 | 1.03 | 0.937 | 0.826 |
| NCI-H1437 | 1.14 | 1.02 | 0.857 | 1.01 | 1.17 | 0.918 | 0.705 | 0.704 | 0.306 | 0.153 | 0.626 | 0.289 | 0.25 | 0.216 |
| NCI-H1563 | 0.898 | 0.973 | 0.936 | 0.967 | 1.14 | 0.724 | 0.592 | 0.542 | 0.547 |  | 0.952 | 1.01 | 1 | 0.815 |
| NCI-H1623 | 0.896 | 0.963 | 0.936 | 0.961 | 1 | 1.14 | 1.12 | 1.08 | 0.932 | 0.519 | 0.581 | 0.355 | 0.283 | 0.267 |
| NCI-H1648 | 0.953 | 0.793 | 0.561 | 0.923 | 0.942 | 0.807 | 0.281 | 0.244 | 0.324 | 0.274 | 0.922 | 0.871 | 0.56 | 0.354 |
| NCI-H1650 | 0.851 | 1.1 | 0.732 | 0.942 | 1.01 | 0.684 | 0.372 | 0.314 | 0.15 | 0.0851 | 0.814 | 0.878 | 0.564 | 0.343 |
| NCI-H1651 | 1.04 | 1.04 | 0.771 | 1.01 | 1.02 | 1.02 | 0.751 | 0.548 | 0.357 | 0.285 | 1.04 | 0.896 | 0.504 | 0.458 |
| NCI-H1666 | 0.906 | 0.978 | 0.886 | 0.982 | 1.08 | 0.7 | 0.68 | 0.557 | 0.484 | 0.373 | 1.04 | 0.683 | 0.503 | 0.479 |
| NCI-H1703 | 1.11 | 1 | 0.915 | 0.917 | 1.26 | 0.512 | 0.291 | 0.186 | 0.161 | 0.112 | 1.17 | 0.999 | 0.848 | 0.562 |
| NCI-H1734 | 1.17 | 1 | 0.787 | 0.991 | 1.07 | 0.899 | 0.375 | 0.291 | 0.151 | 0.113 | 0.93 | 1.08 | 0.859 | 0.461 |
| NCI-H1755 | 1.1 | 1.09 | 1.01 | 1.08 | 1.06 | 0.829 | 0.47 | 0.319 | 0.191 | 0.213 | 1.02 | 0.994 | 0.356 | 0.304 |
| NCI-H1792 | 1.19 | 1.08 |  | 1.07 | 1.09 | 0.536 | 0.251 | 0.235 | 0.173 | 0.177 | 0.975 | 0.851 | 0.278 | 0.344 |
| NCI-H1793 | 0.904 | 0.993 | 0.722 | 0.953 | 0.908 | 0.921 |  | 0.628 | 0.205 | 0.152 | 0.968 | 1.18 | 0.985 | 0.554 |
| NCI-H1915 | 1.13 | 1.09 | 0.878 | 0.965 | 1.03 | 0.944 | 0.119 | 0.406 | 0.18 | 0.118 | 0.818 | 0.986 | 0.956 | 0.779 |

| Cell Line | relative viability (Sulindac; 0.08 µM) | relative viability (Sulindac; 0.253 µM) | relative viability (Sulindac; 0.8 µM) | relative viability (Sulindac; 2.53 µM) | relative viability (Sulindac; 8 µM) | relative viability (Staurosporine; 0.005 µM) | relative viability (Staurosporine; 0.01581 µM) | relative viability (Staurosporine; 0.05 µM) | relative viability (Staurosporine; 0.1581 µM) | relative viability (Staurosporine; 0.5 µM) | relative viability (5-Fluorouracil; 0.02 µM) | relative viability (5-Fluorouracil; 0.2 µM) | relative viability (5-Fluorouracil; 0.6325 µM) | relative viability (5-Fluorouracil; 2 µM) |
| --- | --- | --- | --- | --- | --- | --- | --- | --- | --- | --- | --- | --- | --- | --- |
| NCI-H1944 | 0.997 | 1.03 | 0.908 | 0.904 | 1.11 | 0.983 | 0.699 | 0.567 | 0.353 | 0.246 | 0.91 | 0.905 | 0.293 | 0.195 |
| NCI-H1975 | 1.09 | 0.969 | 0.795 | 0.998 | 1.07 | 0.475 | 0.365 | 0.258 | 0.159 | 0.136 | 0.968 | 1.07 | 0.566 | 0.343 |
| NCI-H1993 | 0.923 | 0.867 | 0.82 | 0.83 | 0.953 | 1.02 | 0.537 | 0.57 | 0.458 | 0.329 | 1.01 | 0.665 | 0.672 | 0.749 |
| NCI-H2009 | 1.1 | 1.08 | 0.972 | 1 | 1.11 | 0.452 | 0.227 | 0.231 | 0.167 | 0.109 | 1.1 | 1.02 | 0.82 | 0.652 |
| NCI-H2023 | 1.39 | 1.05 | 0.744 | 1.01 | 1.13 | 0.471 | 0.289 | 0.178 | 0.0889 | 0.0533 | 0.849 | 0.227 | 0.133 | 0.0914 |
| NCI-H2085 | 0.919 | 1 | 0.891 | 0.971 | 1.04 | 0.833 | 0.586 | 0.624 | 0.361 | 0.285 | 0.931 | 1.02 | 0.989 | 0.813 |
| NCI-H2087 | 1.05 | 1.13 | 0.954 | 1.05 | 1.28 | 0.927 | 0.561 | 0.243 | 0.0918 | 0.0911 | 0.992 | 1.02 | 0.688 | 0.571 |
| NCI-H2126 | 0.975 | 1.01 | 0.842 | 1.03 | 1.05 | 0.875 | 0.397 | 0.582 | 0.391 | 0.303 | 0.915 | 0.532 | 0.356 | 0.351 |
| NCI-H2170 | 1.13 | 1.03 | 0.884 | 1.06 | 0.991 | 1.07 |  | 0.766 | 0.384 | 0.161 | 1.02 | 0.88 | 0.529 | 0.464 |
| NCI-H2228 | 1.2 | 1.08 | 0.916 | 1.03 | 1.18 | 0.735 | 0.471 | 0.407 | 0.145 | 0.107 | 0.976 | 1.02 | 0.75 | 0.458 |
| NCI-H2342 | 0.912 | 0.946 | 0.843 | 0.99 | 0.99 | 1.09 | 0.652 | 0.525 | 0.461 | 0.36 | 0.955 | 1.02 | 0.894 | 0.783 |
| NCI-H2347 | 1.01 | 1.06 | 0.759 | 1.03 | 1.11 | 0.706 | 0.524 | 0.457 | 0.391 | 0.376 | 0.928 | 0.834 | 0.49 | 0.448 |
| NCI-H2405 | 1.05 | 1.09 | 0.958 | 0.944 | 1.16 |  | 0.209 | 0.158 | 0.13 | 0.118 | 1.01 | 1.17 | 0.956 | 0.75 |
| NCI-H3122 | 1.04 | 1.03 | 0.949 | 0.962 | 1.08 | 1.04 |  | 0.893 | 0.255 | 0.357 | 1 | 0.848 | 0.39 | 0.241 |
| PC-3 [JPC-3] | 1.16 | 1.03 | 0.926 | 1.02 | 1.12 | 1.02 | 0.36 | 0.698 | 0.384 | 0.317 | 0.967 | 1.1 | 0.954 | 0.743 |
| PC-14 | 1.11 | 1.14 | 0.786 | 1.08 | 1.18 | 0.691 | 0.404 | 0.152 | 0.0788 | 0.0565 | 1.02 | 1.13 | 0.898 | 0.552 |
| RERF-LC-KJ | 1.09 | 1.09 | 0.814 | 1.06 | 1.02 | 0.95 | 0.682 | 0.501 | 0.237 | 0.211 | 1.05 | 0.912 | 0.975 | 0.828 |
| SK-LU-1 | 1.21 | 1.12 | 0.805 | 0.975 | 1.28 | 0.704 | 0.274 | 0.191 | 0.207 | 0.165 | 0.996 | 1.1 | 0.968 | 0.83 |
| SK-MES-1 | 1.18 | 1.14 | 0.818 | 1.08 | 1.1 | 0.572 | 0.334 | 0.213 | 0.217 | 0.127 | 1.04 | 0.634 | 0.364 | 0.316 |
| SW 900 | 0.644 | 0.939 |  | 0.601 | 0.928 | 0.624 | 0.368 | 0.297 | 0.19 | 0.102 | 0.693 | 0.883 | 0.859 | 0.476 |
| SW 1573 | 1.05 | 1.09 | 0.861 | 0.999 | 1.21 | 0.622 | 0.277 | 0.187 | 0.137 | 0.076 | 1.01 | 1.03 | 0.938 | 0.532 |
